Data published in patent publication US7015248B2, “Use of abietic acid and derivatives thereof for inhibiting cancer” (Xiamen Ever-Health Bio-Tech. Co. Ltd, priority 2002, dated 2006).
Like-named read-outs stand apart in the source and are kept apart here.

Key:
[1] = test system: Hep-G2 human hepatocellular carcinoma cell line; assay: combination with mitomycin C on Hep-G2 cells; format: cell-based; settings: in combination with mitomycin C
[2] = test system: Detroit 551 normal fibroblast cells; assay: DIC microscopy of cell morphology, Detroit 551 normal fibroblast cells; format: cell-based
Protocol: (§1) For evaluation of the biological activities of abietic acid on mammalian cells, a time-lapsed recording using video-enhanced DIC microscopy on a variety of cultured cells, including cancerous and non-cancerous cell lines, before and after addition of abietic acid, was performed.
(§2) Abietic acid may be extracted by any conventional methods. In one embodiment of the invention, abietic acid was extracted according to the method described in Luong J H et al., 1999, Electrophoresis. 20(7): 1546–54, and an abietic acid stock solution at a concentration of 150 μg/ml was prepared subsequently.
Detroit 551 normal fibroblast cells were treated without abietic acid or with abietic acid, as described above. The morphology of the normal fibroblast cells was affected when treated with 0.15 and 0.3 μg/ml abietic acid.
(§3) It has been known that the morphology of a cell reflects the healthy condition of the cell. For instance, once a cell, which is normally attached to a substrate with a flat morphology, swells and becomes round in morphology, it means that the condition of the cell turns disadvantageous and the cell may stop the growth and be dead soon.

[3] = test system: HepG2 cells, a human heptocellular carcinoma cell line; assay: DIC microscopy of cell morphology, HepG2 cells; format: cell-based; settings: for morphology of HepG2 cells: 24-hour incubation
Protocol: as §1, §2
HepG2 cells, a human heptocellular carcinoma cell line, were cultured in a standard medium under standard conditions. The HepG2 cells were trypsinized and a cell suspension at a concentration of 10^5 cells per milliliter of medium was prepared therefrom. The cell suspension was poured into a 22×22 mm coverglass and treated without abietic acid or with 0.3, 0.15 or 0.03 μg/ml abietic acid, respectively, as described above.
as §3

prostaglandin E2 = settings: lipopolysaccharide-treated macrophages; Fernandez et al., 2001; cited from earlier work
[4] = MTT (mitochondrial activity) assay of cell proliferation; format: cell-based
Description: A MTT (mitochondrial activity) assay was used to determine a cell proliferation.

[5] = test system: MCF-7 breast cancer cell line; format: in vivo; settings: 0.02667 mg per gram body weight by gastric pipe per two days; for Average maximum diameter: 8 mice
Protocol: Eighty Balb/c-nu/nu female nude mice, supplied by National Laboratory Animal Center in the ROC (Taiwan), four-week old, weight about 18 to 20 g, free of pinworm infection, were housed in the laboratories of the National Yang-Ming University, Taipei, ROC (Taiwan). Clear water and feeds were normally provided. The litters were replaced with new ones per three days. On the other hand, a MCF-7 breast cancer cell line was cultured under standard conditions.
Since the nude mice were five weeks old, the nude mice were intramuscularly injected with 1.7 mg of estradiol valerate at their leg regions. On the other hand, the MCF-7 cells were treated with estradiol for 24 hours, and then trypsinized, centrifuged and recovered in the Minimum Essential Medium (MEM) medium to achieve a concentration of 2×10^7 cell/ml.
After two days following the intramuscular injection of estradiol valerate, the nude mice were subcutaneously injected with 500 μl of the estradiol-treated MCF-7 cells (2×10^7 cell/ml) at their back regions. Once injection, the back regions swelled but became even later.
After three weeks following the injection of the MCF-7 cells, a subcutaneous tumor of 2 mm in a maximum diameter was developed at the backs of the nude mice.
These tumor containing nude mice were divided into two groups, each including 8 mice. One of the two groups were fed normally as a control group. The mice of the other group were fed with abietic acid at a dosage of 0.02667 mg per gram of the body weight of the nude mice by a gastric pipe per two days for a period of more than 12 weeks (experimental group).
The maximum diameter of the tumor on the back of each nude mouse of the control group and the experimental group were recorded, as shown in Table 1 and FIG. 3.

[6] = test system: MCF-7 breast cancer cell line; assay: combination with taxol against MCF-7 cells; format: cell-based; settings: in combination with taxol
lipoxygenase pathway = settings: Ulusu et al., 2002; read-out: IC50 of inhibition of lipoxygenase pathway; cited from earlier work
[7] = test system: HeLa cells, a human epithelioid cervical carcinoma cell line; assay: video-enhanced DIC microscopy of cell morphology, HeLa cells; format: cell-based
Protocol: as §1, §2
HeLa cells, a human epithelioid cervical carcinoma cell line, were cultured in a standard medium under standard conditions. The HeLa cells were trypsinized and a cell suspension at a concentration of 10^5 cells per milliliter of medium was prepared therefrom. The cell suspension was poured into a 22×22 mm coverglass and treated without abietic acid or with the abietic acid stock solution to achieve a final concentration of 0.3 μg/ml (1/500 dilution), 0.15 μg/ml (1/1000 dilution) or 0.03 μg/ml (1/5000 dilution), respectively.
as §3

[8] = test system: plasma membrane of the cell; assay: electrophysiological experiments and dye-permeability assays; format: cell-based
Protocol: In addition, to further study the mechanisms underlying the swelling phenomenon of a cell, electrophysiological experiments and dye-permeability assays were conducted to measure the permeability of a plasma membrane of the cell.

[9] = test system: breast cancer cells such as MCF-7 or T-47D; settings: Mellanen et al., 1996; cited from earlier work

CC(C)C1=CC2=CC[C@@H]3[C@](C)(CCC[C@@]3(C)C(=O)O)[C@H]2CC1 [abietic acid]
effect on efficacy of mitomycin C on growth [1]: accelerate the efficacy of mitomycin C
morphology of normal fibroblast cells ([2]; 0.03 μg/ml): normal and flat morphology
morphology of normal fibroblast cells ([2]; 0.15 and 0.3 μg/ml): affected
concentration that affects the morphology of a normal fibroblast cell ([2]; Detroit 551): higher than 0.15 μg/ml
morphology and growth of normal fibroblast cells ([2]; about 24 hours exposure at the same concentration): remained flat in morphology and grew well
morphology of HepG2 cells ([3]; 0.03 μg/ml): different morphology
morphology of HepG2 cells ([3]; 0.15 and 0.3 μg/ml): swelled
concentration effective to induce a swelling phenomenon ([3]; HepG2 cell line): 0.03 µg/mL
growth of cancer cells after swelling ([3]; HepG2 cells, about 24 hours exposure, relatively low concentration): inhibition of the growth and the death of the cancer cells
production of prostaglandin E2 (prostaglandin E2): inhibit the production of the inflammatory mediator, prostaglandin E2
cell proliferation / mitosis ([4]; abietic acid by itself): inhibit cell mitosis in a dose-dependent manner
effect on killing effects of anti-cancer drugs ([4]; in combination with a variety of anti-cancer drugs): significantly enhanced the killing effects of a variety of anti-cancer drugs
average maximum diameter of the tumor in comparison with mice without treatment ([5]; 12 weeks): significantly reduced
survival of mice to the end of the period ([5]; more than 12 weeks): all the mice were alive
Average maximum diameter ([5]; week 1): 0.587 cm
Average maximum diameter ([5]; week 3): 0.675 cm
Average maximum diameter ([5]; week 6): 0.700 cm
Average maximum diameter ([5]; week 9): 0.787 cm
Average maximum diameter ([5]; week 12): 0.800 cm
effect on inhibitory activity of taxol [6]: enhance the inhibitory activity of taxol
IC50 (lipoxygenase pathway): 29.5 ± 1.29 µM
morphology of HeLa cells ([7]; 0.03, 0.15 and 0.3 μg/ml, 24-hour incubation): serious swelling phenomenon
concentration effective to induce a swelling phenomenon ([7]; HeLa cell line): 0.03 µg/mL
growth of cancer cells after swelling ([7]; HeLa cells, about 24 hours exposure, relatively low concentration): inhibition of the growth and the death of the cancer cells
permeability of a plasma membrane [8]: direct effect on influx and efflux of chemicals across the cell membrane
estrogenic effect [9]: estrogenic
